Measured values reported in patent publication US9975881B2, “Compound” (ASTRAZENECA AB, priority 2011, dated 2018).

Key:
human CXCR2 = biological target: T1, human CXCR2 (Homo sapiens, UniProt P25025); assay: Potency (pIC50) - ligand binding assay, Alexa647 IL-8 displacement from CXCR2 membranes; settings: 50% reduction in specific Alexa647 IL-8 (1 nM) binding to HEK293 human CXCR2 membranes
T1 construct: expressed in transfected cells
T1 sequence (P25025 1-360): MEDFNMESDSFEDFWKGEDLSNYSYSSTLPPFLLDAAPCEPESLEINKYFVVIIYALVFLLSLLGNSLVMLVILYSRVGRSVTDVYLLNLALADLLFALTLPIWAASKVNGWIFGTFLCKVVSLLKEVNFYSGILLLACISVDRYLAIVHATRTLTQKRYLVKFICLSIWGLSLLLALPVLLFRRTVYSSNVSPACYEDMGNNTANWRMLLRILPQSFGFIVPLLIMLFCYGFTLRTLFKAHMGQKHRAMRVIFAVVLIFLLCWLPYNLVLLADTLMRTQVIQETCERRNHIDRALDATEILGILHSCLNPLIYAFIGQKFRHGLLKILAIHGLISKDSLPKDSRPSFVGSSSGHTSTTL
Description: Potency (pIC50)—Ligand Binding Assay
Human Embryonic Kidney 293 cells (HEK293 cells) from the American Type Culture Collection were transfected with human CXCR2 cDNA (RefSeqNM_001557), previously cloned into the eukaryotic expression vector pIRES-Neo2, (Clontech). Populations of Geneticin (Invitrogen)-resistant cells were selected for stable expression of CXCR2 and clones were generated by dilution cloning (0.3 cells/well) in 96-well tissue culture plates.
Cells of the highest expressing clone (Clone 6, identified by FACS analysis) were harvested, following 24 hour pre-treatment with 5 mM sodium butyrate, in 10 ml of ice-cold hypotonic buffer (20 mM HEPES, 1 mM EDTA, 0.1 mM DTT, 0.1 mM Phenyl Methyl Sulphonyl Fluoride and 0.1 mg/L Bacitracin, pH7.4) and left to swell for 10 min. Following centrifugation (200 g, 5 min, 4° C.), cells were resuspended in hypotonic buffer and membranes were prepared using a polytron tissue homogenizer (3×10 second treatments). […]
All assays were performed in black, 384-well plates (Greiner). […] Total binding of Alexa^647 IL-8 was determined in the absence of competing compound and non-specific binding of Alexa^647 IL-8 was determined in the presence of 0.3 μM 1-(4-chloro-2-hydroxy-3-sulfamoyl-phenyl)-3-(2,3-dichlorophenyl)urea. […]

[1] = Distribution coefficient at pH 7.4 (Log D7.4), 1-octanol/phosphate buffer; type: physicochemical; settings: 1-octanol / 0.02 M phosphate buffer pH 7.4
Protocol: Measurement of Distribution Coefficient at pH 7.4 (Log D7.4)
Compounds of interest (1 mg) were dispensed into individual 1-mL polypropylene vials, held within a 96-well plate along with 1-octanol (700 μL), and presaturated with 0.02 M phosphate buffer (pH 7.4). The plate was then shaken overnight followed by centrifugation (800 g for 15 min) to sediment any undissolved solids. Up to 24 mixtures of 10 compounds (or less) were then prepared by pooling the 1-octanol solutions (100 μL) into a plate of 12-mL glass sample tubes. […] The pooling of compounds was performed robotically and controlled using automatically generated bespoke work lists. If a mixture contained less than 10 compounds, then 1-octanol (presaturated with 0.02 M phosphate buffer [pH 7.4]) was added to make up the total volume of the 1-octanol phase to 1 mL. 1-Octanol-saturated phosphate buffer (0.02 M, pH 7.4, 2 mL) was then added to each mixture before shaking (450 rpm for 30 min) and centrifugation (800 g for 15 min). The final 1-octanol and aqueous phases of each partition mixture were then robotically separated. […] Log D7.4 was calculated from the ratio of one of the 1-octanol relative concentrations to the interpolated aqueous relative concentration after correcting for the extent of dilution of both the 1-octanol and aqueous solutions.

IC50 (human CXCR2): 3.98 nM | logD [1]: 1.9
Structure (SMILES): CC1CN(S(=O)(=O)Nc2cc(O[C@H](C)[C@@H](O)CO)nc(SCc3ccc(F)cc3)n2)C1 [Example 1, N-(6-((2R,3S)-3,4-Dihydroxybutan-2-yloxy)-2-(4-fluorobenzylthio)pyrimidin-4-yl)-3-methylazetidine-1-sulfonamide]
